According to ChEMBL document CHEMBL1201862, “PubChem BioAssay data set” (2004):
Activity calls are given as the source filed them.

Key:
[1] = target: T1, Zinc finger protein mex-5 (Caenorhabditis elegans, UniProt Q9XUB2); assay: potency of MEX-5 RNA-binding blockers – biochemical, C. elegans, fluorescence polarization, dose response (AID 1960)
T1 sequence (Q9XUB2 whole entry): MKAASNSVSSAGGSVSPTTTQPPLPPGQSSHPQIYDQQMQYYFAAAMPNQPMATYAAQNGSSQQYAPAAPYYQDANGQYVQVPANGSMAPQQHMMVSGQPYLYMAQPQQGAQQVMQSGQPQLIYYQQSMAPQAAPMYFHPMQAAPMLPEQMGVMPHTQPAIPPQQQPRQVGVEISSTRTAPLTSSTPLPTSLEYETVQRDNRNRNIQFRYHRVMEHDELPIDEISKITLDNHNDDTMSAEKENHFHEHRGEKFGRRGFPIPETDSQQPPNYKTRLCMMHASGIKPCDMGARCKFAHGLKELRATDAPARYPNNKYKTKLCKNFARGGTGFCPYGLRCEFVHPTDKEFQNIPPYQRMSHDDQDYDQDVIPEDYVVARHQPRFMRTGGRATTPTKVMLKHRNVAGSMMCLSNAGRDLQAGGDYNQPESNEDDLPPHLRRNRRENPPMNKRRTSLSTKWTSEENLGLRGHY

[2] = target: T2, RNA-binding protein pos-1 (Caenorhabditis elegans, UniProt G5EF15); assay: disruptors of C. elegans POS-1 RNA interaction – biochemical, fluorescence polarization, dose response (AID 1964);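 also: purified POS-1 fused to maltose binding protein made in E. coli; potency of compounds blocking POS-1 binding to fluorescent RNA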
T2 sequence (G5EF15 whole entry): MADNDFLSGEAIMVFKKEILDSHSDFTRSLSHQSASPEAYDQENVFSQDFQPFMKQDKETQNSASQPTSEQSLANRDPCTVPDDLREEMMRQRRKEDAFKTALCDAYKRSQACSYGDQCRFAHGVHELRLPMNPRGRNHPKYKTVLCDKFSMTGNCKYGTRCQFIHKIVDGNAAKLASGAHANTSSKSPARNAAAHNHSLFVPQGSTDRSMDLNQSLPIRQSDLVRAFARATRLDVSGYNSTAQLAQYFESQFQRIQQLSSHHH

Protein RecA = target: T3, Protein RecA (Mycobacterium tuberculosis, UniProt P9WHJ3); assay: Fluorescence Cell-Free Homogeneous Dose Retest to Identify Inhibitors of RecA-Intein Splicing Activity. [Related pubchem assays (depositor defined):AID2097, AID2223, AID489010, AID492950]; assay type: functional
T3 sequence (P9WHJ3 whole entry): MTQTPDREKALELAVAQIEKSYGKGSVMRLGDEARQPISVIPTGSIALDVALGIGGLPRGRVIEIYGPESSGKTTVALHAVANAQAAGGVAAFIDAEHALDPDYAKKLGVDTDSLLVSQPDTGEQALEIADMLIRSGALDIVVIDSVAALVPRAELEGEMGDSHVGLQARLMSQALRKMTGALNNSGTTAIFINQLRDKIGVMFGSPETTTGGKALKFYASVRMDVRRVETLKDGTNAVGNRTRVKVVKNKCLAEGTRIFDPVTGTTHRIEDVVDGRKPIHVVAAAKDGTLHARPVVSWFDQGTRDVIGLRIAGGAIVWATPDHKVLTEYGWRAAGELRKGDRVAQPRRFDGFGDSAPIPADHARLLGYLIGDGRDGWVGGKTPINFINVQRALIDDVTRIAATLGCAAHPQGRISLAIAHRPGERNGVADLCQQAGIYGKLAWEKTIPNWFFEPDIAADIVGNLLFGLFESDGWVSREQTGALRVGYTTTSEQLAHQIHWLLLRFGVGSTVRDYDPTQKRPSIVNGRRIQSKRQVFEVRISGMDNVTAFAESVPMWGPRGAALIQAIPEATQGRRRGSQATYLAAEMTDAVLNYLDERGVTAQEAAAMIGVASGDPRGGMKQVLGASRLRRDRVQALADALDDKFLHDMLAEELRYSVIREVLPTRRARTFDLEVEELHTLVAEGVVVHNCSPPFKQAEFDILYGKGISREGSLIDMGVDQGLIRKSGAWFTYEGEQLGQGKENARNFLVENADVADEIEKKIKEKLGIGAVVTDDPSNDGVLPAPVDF

[3] = target: T4, Replicative DNA helicase DnaB (Mycobacterium tuberculosis, UniProt P9WMR3); assay: DnaB intein splicing inhibitors, dose response, biochemical, cell-free fluorescence (AID 449749); assay type: functional
T4 sequence (P9WMR3 whole entry): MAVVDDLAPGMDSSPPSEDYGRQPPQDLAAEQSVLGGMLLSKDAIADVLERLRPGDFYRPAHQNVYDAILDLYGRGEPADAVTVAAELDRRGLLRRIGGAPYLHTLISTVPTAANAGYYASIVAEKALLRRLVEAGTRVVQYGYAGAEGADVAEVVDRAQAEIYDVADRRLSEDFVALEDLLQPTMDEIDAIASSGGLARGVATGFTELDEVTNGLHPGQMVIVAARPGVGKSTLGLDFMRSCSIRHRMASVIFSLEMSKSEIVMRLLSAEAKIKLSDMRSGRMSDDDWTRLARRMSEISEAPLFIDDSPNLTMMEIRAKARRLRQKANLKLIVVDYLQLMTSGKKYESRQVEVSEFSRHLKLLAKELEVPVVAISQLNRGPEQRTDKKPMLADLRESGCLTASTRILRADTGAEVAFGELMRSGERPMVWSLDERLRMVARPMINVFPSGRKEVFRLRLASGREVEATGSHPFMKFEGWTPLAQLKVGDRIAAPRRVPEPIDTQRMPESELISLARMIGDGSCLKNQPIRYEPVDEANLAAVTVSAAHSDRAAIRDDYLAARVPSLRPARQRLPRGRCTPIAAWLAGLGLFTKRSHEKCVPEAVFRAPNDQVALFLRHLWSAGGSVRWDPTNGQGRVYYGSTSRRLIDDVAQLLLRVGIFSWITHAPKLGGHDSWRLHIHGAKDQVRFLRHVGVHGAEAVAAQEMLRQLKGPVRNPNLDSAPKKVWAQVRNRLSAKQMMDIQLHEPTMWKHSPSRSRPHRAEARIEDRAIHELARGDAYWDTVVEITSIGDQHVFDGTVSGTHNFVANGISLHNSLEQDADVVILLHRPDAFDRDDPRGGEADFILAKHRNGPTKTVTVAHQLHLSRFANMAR

[4] = target: T5, Rac GTPase-activating protein 1 (Homo sapiens, UniProt Q9H0H5); assay: blockers of MgcRacGAP-driven Rac1 GTP hydrolysis – biochemical, ADP Hunter fluorescence, primary and confirmatory, confirmation (AID 624330); assay type: functional
T5 sequence (Q9H0H5 whole entry): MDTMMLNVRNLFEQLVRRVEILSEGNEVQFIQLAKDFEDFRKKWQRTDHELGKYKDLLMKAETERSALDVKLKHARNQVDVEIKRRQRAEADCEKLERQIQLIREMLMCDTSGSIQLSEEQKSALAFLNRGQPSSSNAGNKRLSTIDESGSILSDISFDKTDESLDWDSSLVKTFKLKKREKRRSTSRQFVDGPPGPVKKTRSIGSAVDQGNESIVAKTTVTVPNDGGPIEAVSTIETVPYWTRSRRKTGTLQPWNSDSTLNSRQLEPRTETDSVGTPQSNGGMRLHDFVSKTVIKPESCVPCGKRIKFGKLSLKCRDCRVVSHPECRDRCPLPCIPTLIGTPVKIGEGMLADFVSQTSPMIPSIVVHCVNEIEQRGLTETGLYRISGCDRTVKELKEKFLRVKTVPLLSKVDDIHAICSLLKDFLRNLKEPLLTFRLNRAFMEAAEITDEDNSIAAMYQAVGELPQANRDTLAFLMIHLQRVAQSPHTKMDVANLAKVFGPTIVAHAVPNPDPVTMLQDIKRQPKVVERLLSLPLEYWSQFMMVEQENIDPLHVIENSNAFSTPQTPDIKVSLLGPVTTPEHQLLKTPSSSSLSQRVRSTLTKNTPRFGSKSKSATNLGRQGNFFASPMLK

Streptococcus = assay: GAS UMAA2166 growth inhibition – luminescence, BacTiterGlo, counter-screen for streptokinase expression inhibitor project, dose response (AID 1915); assay type: functional, organism-based;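 also: potency for reduction of bacterial viability or growth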
[5] = test system: Streptococcus sp. 'group A'; assay: Streptococcus pyogenes SK(-)GAS viability under kanamycin – luminescence, BacTiterGlo, confirmation, counter-screen for streptokinase expression inhibitor project, dose response (AID 1900); assay type: functional, organism-based
Cytochrome P450 2D6 = Cytochrome P450 2D6 (Homo sapiens, UniProt P10635);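 also: CYP2D6 member of a cytochrome P450 panel assay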
Sequence of Cytochrome P450 2D6 (P10635 whole entry): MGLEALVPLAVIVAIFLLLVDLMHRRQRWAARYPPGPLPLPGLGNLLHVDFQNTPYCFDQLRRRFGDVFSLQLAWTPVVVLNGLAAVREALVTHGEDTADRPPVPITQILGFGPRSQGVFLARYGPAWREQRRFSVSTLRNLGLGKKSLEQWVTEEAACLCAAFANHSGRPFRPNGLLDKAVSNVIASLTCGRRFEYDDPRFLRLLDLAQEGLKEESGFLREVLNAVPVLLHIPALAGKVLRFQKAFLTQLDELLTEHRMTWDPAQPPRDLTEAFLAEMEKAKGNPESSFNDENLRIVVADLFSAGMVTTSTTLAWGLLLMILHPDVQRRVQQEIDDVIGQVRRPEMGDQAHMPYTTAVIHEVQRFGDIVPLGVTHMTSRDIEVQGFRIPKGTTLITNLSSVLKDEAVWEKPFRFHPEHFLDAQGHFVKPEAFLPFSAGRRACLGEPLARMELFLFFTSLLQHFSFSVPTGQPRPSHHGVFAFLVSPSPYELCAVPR

Cytochrome P450 1A2 = target: T6, Cytochrome P450 1A2 (Homo sapiens, UniProt P05177);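 also: PubChem cytochrome P450 panel assay, CYP1A2 panel member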
T6 sequence (P05177 whole entry): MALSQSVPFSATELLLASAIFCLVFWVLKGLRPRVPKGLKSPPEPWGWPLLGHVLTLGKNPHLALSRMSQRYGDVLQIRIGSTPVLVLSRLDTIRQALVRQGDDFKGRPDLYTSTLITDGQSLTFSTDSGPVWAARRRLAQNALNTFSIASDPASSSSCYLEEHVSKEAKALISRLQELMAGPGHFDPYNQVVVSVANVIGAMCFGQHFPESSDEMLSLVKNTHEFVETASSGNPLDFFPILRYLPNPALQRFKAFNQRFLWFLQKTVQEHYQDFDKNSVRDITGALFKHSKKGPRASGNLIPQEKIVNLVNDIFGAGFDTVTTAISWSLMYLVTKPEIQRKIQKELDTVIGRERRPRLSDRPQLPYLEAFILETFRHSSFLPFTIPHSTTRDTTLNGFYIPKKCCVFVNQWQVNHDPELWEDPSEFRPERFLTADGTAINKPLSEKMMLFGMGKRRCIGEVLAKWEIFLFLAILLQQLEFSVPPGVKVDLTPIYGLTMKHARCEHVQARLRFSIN

Cytochrome P450 2C19 = Cytochrome P450 2C19 (Homo sapiens, UniProt P33261); assay: Cytochrome panel assay with activity outcomes. Panel member name: p450-cyp2c19 Compounds with AC50 equal or less than 10 uM are considered active; assay type: functional; details: read-out: AC50
Sequence of Cytochrome P450 2C19 (P33261 whole entry): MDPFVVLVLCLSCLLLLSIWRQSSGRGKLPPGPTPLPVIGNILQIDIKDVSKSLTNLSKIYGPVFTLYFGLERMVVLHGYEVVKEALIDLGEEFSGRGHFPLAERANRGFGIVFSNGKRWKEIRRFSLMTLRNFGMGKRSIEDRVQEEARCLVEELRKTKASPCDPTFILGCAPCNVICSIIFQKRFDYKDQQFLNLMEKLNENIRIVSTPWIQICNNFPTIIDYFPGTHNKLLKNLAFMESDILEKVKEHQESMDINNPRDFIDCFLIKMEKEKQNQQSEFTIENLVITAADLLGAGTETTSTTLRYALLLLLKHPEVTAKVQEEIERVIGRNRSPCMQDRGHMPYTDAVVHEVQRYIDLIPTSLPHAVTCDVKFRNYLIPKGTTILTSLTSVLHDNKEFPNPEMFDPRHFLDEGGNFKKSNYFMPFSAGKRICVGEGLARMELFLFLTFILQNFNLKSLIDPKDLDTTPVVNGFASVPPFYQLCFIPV

Cytochrome P450 3A4 = Cytochrome P450 3A4 (Homo sapiens, UniProt P08684);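 also: CYP3A4 tested as one member of a cytochrome P450 panel screen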
Sequence of Cytochrome P450 3A4 (P08684 whole entry): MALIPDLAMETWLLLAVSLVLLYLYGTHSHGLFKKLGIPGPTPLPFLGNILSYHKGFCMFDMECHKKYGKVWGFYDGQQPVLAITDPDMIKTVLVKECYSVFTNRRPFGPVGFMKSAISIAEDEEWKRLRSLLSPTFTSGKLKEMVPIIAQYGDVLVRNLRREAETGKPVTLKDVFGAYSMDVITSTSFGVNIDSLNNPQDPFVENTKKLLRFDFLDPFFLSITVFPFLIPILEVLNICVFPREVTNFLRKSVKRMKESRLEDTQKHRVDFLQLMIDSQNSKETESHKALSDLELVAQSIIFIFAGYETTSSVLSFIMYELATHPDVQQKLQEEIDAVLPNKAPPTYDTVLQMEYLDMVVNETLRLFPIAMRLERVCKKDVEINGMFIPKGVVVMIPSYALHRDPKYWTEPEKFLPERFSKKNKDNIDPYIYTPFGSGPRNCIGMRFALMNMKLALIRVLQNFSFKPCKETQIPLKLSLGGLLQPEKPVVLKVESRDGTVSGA

Cytochrome P450 2C9 = Cytochrome P450 2C9 (Homo sapiens, UniProt P11712)
Sequence of Cytochrome P450 2C9 (P11712 whole entry): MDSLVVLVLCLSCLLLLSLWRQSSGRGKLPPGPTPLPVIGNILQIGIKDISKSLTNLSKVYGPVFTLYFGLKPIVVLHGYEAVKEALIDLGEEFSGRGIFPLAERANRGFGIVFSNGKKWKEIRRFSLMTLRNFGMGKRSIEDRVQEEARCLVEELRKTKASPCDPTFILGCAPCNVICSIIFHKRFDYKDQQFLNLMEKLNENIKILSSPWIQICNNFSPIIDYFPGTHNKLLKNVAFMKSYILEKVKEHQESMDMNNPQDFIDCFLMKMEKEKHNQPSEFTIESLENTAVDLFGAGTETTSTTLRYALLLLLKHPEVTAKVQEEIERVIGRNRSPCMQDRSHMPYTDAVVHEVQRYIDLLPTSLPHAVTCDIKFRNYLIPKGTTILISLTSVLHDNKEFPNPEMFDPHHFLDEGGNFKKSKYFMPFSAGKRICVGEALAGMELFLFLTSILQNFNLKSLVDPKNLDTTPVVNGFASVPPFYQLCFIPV

| Structure (SMILES) | EC50 [1] | EC50 [2] | EC50 (Protein RecA) | further results |
| --- | --- | --- | --- | --- |
| Oc1cccc(/C=N/N=C/c2cccc(O)c2O)c1O | 24.6 µM (active) | 42.9 µM (active) | – | – |
| Cc1ccccc1N=Nc1c(O)n(C)c2ccccc12 | > 300 µM (not active) | > 300 µM (not active) | – | – |
| CC(C)(C)NC(=O)C(c1ccc(Cl)cc1)N(Cc1ccco1)C(=O)CCl (configuration not stated) | – | – | 1.97 µM (active) | AC50 [3]: 24.1 µM (active) |
| NC(=O)c1ccsc1N | 10.1 µM (inconclusive) | 10.9 µM (active) | – | – |
| Oc1ccc(/C=N/Nc2ncc(Cl)cc2Cl)cc1 | – | – | – | IC50 [4]: 32.3 µM (active) |
| O=C(O)c1cc(-n2cccc2)ccc1N1CCOCC1 | 74.3 µM (active) | > 300 µM (not active) | – | – |
| CCOC(=O)N1CCN(C(=O)c2ccc3c(c2)NC(=O)/C(=C\c2ccc(OC)c(OC)c2)S3)CC1 | > 300 µM (inconclusive) | > 300 µM (not active) | – | EC50 (Streptococcus): 5.67 µM (active); EC50 [5]: 0.875 µM (active) |
| O=C(NNC(=O)c1ccccc1[N+](=O)[O-])c1cnccn1 | 1.25 µM (active) | 76.5 µM (active) | – | – |
| CCOC(=O)c1c(NC(=O)/C=C/C(=O)O)sc(C)c1-c1ccc(F)cc1 | – | – | 6.23 µM (active) | AC50 [3]: 14.3 µM (active) |
| COc1ccc2[nH]c(SCC(=O)Nc3nonc3C)nc2c1 | 20.7 µM (inconclusive) | 18.4 µM (active) | – | – |
| Oc1ccc(CCc2ccccn2)cc1 | – | – | – | IC50 [4]: 40 µM (active) |
| C=CCNC(=S)Nc1ccc(OC(=O)Nc2ccc(Cl)c(Cl)c2)cc1 | – | – | – | IC50 [4]: 89 µM (active) |
| Cc1c(N(C)C)nc2ccccc2c1N | – | – | – | IC50 [4]: 102 µM (active) |
| CC1=NNC(=O)C1Cc1c(Cl)cccc1Cl (configuration not stated) | – | – | 0.642 µM (active) | AC50 [3]: 1.39 µM (active) |
| C=CCn1c(-c2cccnc2Cl)nc2ccccc21 | – | – | > 380 µM (inactive) | AC50 [3]: > 380 µM (inactive) |
| CC(C)CC1C(C#N)=C(N)Oc2[nH]nc(-c3cccs3)c21 (configuration not stated) | – | – | 58.1 µM (active) | AC50 [3]: 48.8 µM (active) |
| COc1cc(C=NNC(=O)c2ccccc2-n2cccc2)ccc1O | – | – | – | IC50 [4]: 32.7 µM (active) |
| CN1C(=O)C(=C2CC(c3ccccc3)N(C(=O)CCl)N2)C(=O)N(C)C1=O (configuration not stated) | – | – | 0.351 µM (active) | AC50 [3]: 2.05 µM (active) |
| CC(C)CS(=O)(=O)C1=NN2C(=N)/C(=C\c3ccc(OC(=O)c4ccco4)cc3)C(=O)N=C2S1 | – | – | 14.4 µM (active) | – |
| Cn1c(SCC(=O)NCc2ccc(F)cc2)nc2ccccc21 | – | – | > 380 µM (inactive) | AC50 [3]: 124 µM (active) |
| O=C(/C=C/c1c(Cl)cccc1Cl)N1CCOCC1 | > 300 µM (not active) | > 300 µM (not active) | – | – |
| C=CCSc1nnc2c(n1)OC(c1c(C)[nH]n(-c3ccccc3)c1=O)Nc1ccccc1-2 (configuration not stated) | – | – | – | AC50 (Cytochrome P450 2D6): 0.158 µM (inconclusive); AC50 (Cytochrome P450 1A2): 15.8 µM (inconclusive); AC50 (Cytochrome P450 2C19): 8.91 µM (inconclusive) |
| Cc1cccc(N(C)S(=O)(=O)c2nnc(NC(=O)c3ccco3)s2)c1 | > 300 µM (not active) | > 300 µM (not active) | – | – |
| O=C(Oc1ccc(Br)cc1C(=S)N1CCOCC1)c1cccc([N+](=O)[O-])c1 | – | – | 23.1 µM (active) | AC50 [3]: 18.2 µM (active) |
| Cc1ccc2occ(/C=C/C(=O)O)c(=O)c2c1 | – | – | – | AC50 (Cytochrome P450 3A4): 22.4 µM (inconclusive); AC50 (Cytochrome P450 2D6): 15.8 µM (inconclusive); AC50 (Cytochrome P450 2C9): 25.1 µM (inconclusive); AC50 (Cytochrome P450 2C19): 28.2 µM (inconclusive) |
| COc1ccc(CCNC(=O)CNCC(c2ccccc2)N(C)C)cc1OC (configuration not stated) | – | – | – | IC50 [4]: 78.4 µM (active) |
| COC(=O)c1ccc(-n2c(C)ccc2-c2ccccc2)cc1 | > 300 µM (not active) | > 300 µM (not active) | – | – |
